# Results: patent US8524194B2, “Radiolabelled MMP selective compounds” (Academisch Medisch Centrum Bij de Universiteit van Amsterdam, priority 2008, dated 2013)
# Assays:
# MMP-1 = molecular target: T1, MMP-1 (Homo sapiens, UniProt P03956); assay: in vitro MMP inhibition, MMP-1; format: biochemical; details: preliminary results
# T1 sequence (P03956 100-469): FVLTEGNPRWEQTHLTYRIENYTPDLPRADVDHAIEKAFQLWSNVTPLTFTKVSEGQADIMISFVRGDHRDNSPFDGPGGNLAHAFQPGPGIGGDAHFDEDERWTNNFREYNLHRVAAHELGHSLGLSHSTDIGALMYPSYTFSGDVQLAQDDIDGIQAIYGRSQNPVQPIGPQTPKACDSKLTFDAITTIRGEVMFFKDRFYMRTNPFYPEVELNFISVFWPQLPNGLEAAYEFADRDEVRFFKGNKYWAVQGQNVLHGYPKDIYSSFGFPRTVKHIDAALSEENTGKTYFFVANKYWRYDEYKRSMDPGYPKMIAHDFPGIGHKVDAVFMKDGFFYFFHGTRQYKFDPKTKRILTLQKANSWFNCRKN
# MMP-2 = molecular target: T2, MMP-2 (Homo sapiens, UniProt P08253); assay: in vitro MMP inhibition, MMP-2; format: biochemical; details: preliminary results
# T2 sequence (P08253 110-660): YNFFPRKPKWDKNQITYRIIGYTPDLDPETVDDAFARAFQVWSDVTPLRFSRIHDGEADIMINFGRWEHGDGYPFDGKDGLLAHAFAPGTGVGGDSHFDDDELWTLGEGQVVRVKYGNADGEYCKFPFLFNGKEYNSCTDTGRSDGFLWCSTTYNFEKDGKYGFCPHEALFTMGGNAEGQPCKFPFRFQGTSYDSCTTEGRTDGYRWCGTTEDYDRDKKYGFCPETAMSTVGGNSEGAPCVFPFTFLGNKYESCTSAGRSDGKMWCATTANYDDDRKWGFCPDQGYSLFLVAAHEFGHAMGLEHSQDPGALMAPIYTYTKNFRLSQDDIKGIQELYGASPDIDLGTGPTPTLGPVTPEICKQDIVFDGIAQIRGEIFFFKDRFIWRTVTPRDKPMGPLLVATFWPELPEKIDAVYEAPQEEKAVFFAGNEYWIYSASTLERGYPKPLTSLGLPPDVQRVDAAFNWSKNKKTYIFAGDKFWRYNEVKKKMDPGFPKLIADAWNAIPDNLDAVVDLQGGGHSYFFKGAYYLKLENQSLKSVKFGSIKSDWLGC
# MMP-9 = MMP-9 (Homo sapiens, UniProt P14780); assay: in vitro MMP inhibition, MMP-9; format: biochemical; details: preliminary results
# [1] = tissue biodistribution after intravenous administration; format: in vivo, CL57/BL6 mice; details: i.v.
# Experimental: Because the in vitro studies gave promising results, preliminary in vivo studies were performed using the CL57/BL6 mice (8 weeks old). The tissue distribution of [^123I]8 (which is representative for the radioisotopes with alternative halogens), after intravenous administration, was determined at three time points. […] This is regular pharmacokinetic behaviour of a radiotracer.
# The extended biodistribution studies were performed using the CL57/BL6 mice (8 weeks old). Here the tissue distribution of [^123I]8, after intravenous administration was determined at 9 time points (up to 24 hours p.i.).
# [2] = system: atherosclerotic plaques (MMP-2); assay: binding to atherosclerotic plaques in the aortic sinus, storage phosphor imaging; format: in vivo; details: ApoE−/− mice on Western Type diet, i.v., three hours after injection, FIG. 3
# Experimental: Four month old ApoE−/− mice were given a Western Type diet (cat nr. 4021.06; Arie Blok Diervoeding, Woerden, the Netherlands), during one month to stimulate atherogenesis. On the last day of the experiment the radiolabeled MMP-2 antagonist was given by intravenous injection. Three hours after injection, the mice were harvested and the aortic sinus area was analysed overnight using a storage phosphor imaging technique for binding of the MMP2 antagonist.
# [3] = CL57/BL6 mice 8 weeks old, three time points, FIG. 1
# Chain of MMP-9 (P14780 94-707, species assumed): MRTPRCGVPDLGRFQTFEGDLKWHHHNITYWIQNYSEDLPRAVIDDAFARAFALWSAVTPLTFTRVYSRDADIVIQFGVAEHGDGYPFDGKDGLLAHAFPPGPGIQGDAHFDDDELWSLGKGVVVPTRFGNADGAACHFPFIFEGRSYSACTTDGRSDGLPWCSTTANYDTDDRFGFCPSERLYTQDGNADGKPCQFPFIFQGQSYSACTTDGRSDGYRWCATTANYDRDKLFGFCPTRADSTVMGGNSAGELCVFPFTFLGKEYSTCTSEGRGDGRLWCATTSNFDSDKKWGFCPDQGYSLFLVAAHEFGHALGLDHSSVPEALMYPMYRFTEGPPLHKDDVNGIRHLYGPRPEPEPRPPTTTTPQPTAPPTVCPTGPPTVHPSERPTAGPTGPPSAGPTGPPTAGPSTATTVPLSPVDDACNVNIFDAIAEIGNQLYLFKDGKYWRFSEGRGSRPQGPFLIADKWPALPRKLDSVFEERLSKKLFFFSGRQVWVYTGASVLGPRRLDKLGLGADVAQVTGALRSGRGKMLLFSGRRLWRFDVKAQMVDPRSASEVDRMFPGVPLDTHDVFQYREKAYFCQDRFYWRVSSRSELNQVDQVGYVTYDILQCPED
IC50 (MMP-1),IC50 (MMP-2),IC50 (MMP-9),"liver uptake [1, 3]","route of excretion [1, 3]","thyroid uptake (de-iodination in vivo) [1, 3]",Compound,"re-uptake in liver and kidney ([1]; CL57/BL6 mice, 9 time points up to 24 hours p.i., FIG. 2)",radioactivity in the aortic sinus [2]
4690 ± 2220 nM,0.13 ± 0.03 nM,0.27 ± 0.15 nM,,,,"O=C(O)CN(CC(=O)NO)S(=O)(=O)c1ccc(Oc2ccc(F)cc2)cc1 [Compound 6b, {[4-(4-Fluoro-phenoxy)-benzenesulphonyl]-hydroxycarbamoylmethyl-amino}-acetic acid]",,
1320 ± 790 nM,7.64 ± 1.43 nM,1.61 ± 1.41 nM,,,,"O=C(O)CN(CC(=O)NO)S(=O)(=O)c1ccc(Oc2ccc(I)cc2)cc1 [Compound 6e, {[4-(4-Iodo-phenoxy)-benzenesulphonyl]-hydroxycarbamoylmethyl-amino}-acetic acid]",,
910 ± 560 nM,0.87 ± 0.4 nM,1.95 ± 1.1 nM,,,,"O=C(O)CN(CC(=O)NO)S(=O)(=O)c1ccc(Oc2ccc(Br)cc2)cc1 [Compound 6d, {[4-(4-Bromo-phenoxy)-benzenesulphonyl]-hydroxycarbamoylmethyl-amino}-acetic acid]",,
1670 ± 980 nM,1.89 ± 1.11 nM,4.31 ± 2.06 nM,,,,"O=C(O)CN(CC(=O)NO)S(=O)(=O)c1ccc(Oc2ccccc2)cc1 [Compound 6a, {[4-Phenoxy-benzenesulphonyl]-hydroxycarbamoylmethyl-amino}-acetic acid]",,
,,,taken up intensively into the liver,excreted mainly via the urinary tract,very low uptake in the thyroid,"O=C(O)CN(CC(=O)NO)S(=O)(=O)c1ccc(Oc2ccc([123I])cc2)cc1 [[^123I]8, {[4-(4-[^123I]Iodophenoxy)-benzenesulphonyl]-hydroxycarbamoylmethyl-amino}-acetic acid]",A little re-uptake was observed in the liver and kidney after 3 and 6 hours respectively,Increased radioactivity was observed in the aortic sinus of the heart
